This is an account of results in US11376324B2, “Sting activating nanovaccine for immunotherapy” (The Board of Regents of the University of Texas System, priority 2016, dated 2022).

A short description of data set [1]: Histology of major organs (H&E). The conditions noted are these: repeated injections, 10 μg OVA plus 150 μg. Format: in vivo, C57BL/6 mice. The protocol: FIG. 14. Histology analyses of major organs for safety assessment of PC7A nanovaccine. Representative H&E sections of the main organs from C57BL/6 mice after repeated injections of 10 μg OVA plus 150 μg PC7A NP or the same dose of Poly(I:C). Mice were sacrificed 24 h after the second injection (n=5 for each group).

For another data set, the system named is IRF7 and CXCL10. Briefly: q-RT-PCR of interferon-stimulated genes at injection site. Format: in vivo, mice. The conditions noted are these: local tissue after s.c. injection. The text has this:
Samples were run in triplicate.

A further data set has as its system B16-OVA tumor. Briefly: B16-OVA melanoma tumor therapy. Conditions: peptide 0.5 μg, s.c. day 5 and booster 5 days later. Format: in vivo, C57BL/6 mice. The protocol: Six to eight week old mice (n=10 for each group) were injected subcutaneously with B16-OVA or B16F10 melanoma cells (1.5×10^5), or TC-1 cells (1.5×10^5), MC38 cells (5×10^5) into the right flank of mice. […] Or at day 3, 6, 9 and 12, some groups were i.p. injected with 200 μg checkpoint inhibitors (anti-mPD-1, BioXcell, BE0146) for comparison or synergy evaluation. The tumor growth was subsequently measured twice a week using a digital caliper and calculated as 0.5×length×width^2 by blinded investigators. Mice were killed when tumor […] reached 1500 mm^3, the end point of tumor detection is 2-fold of the longest survival time (LST) of control group, so around 40 days for melanoma tumor model, and around 60 days for TC-1 and MC38 tumor models.

In the case of Poly(I:C), the “histology of major organs (liver, spleen, kidney, heart)” value in data set [1] is reported as “ballooned hepatocytes indicative of steatohepatitis”. In addition, the “IRF7 and CXCL10 expression, 2 to 8 h” value in the data set on IRF7 and CXCL10 was “higher response in IRF7 and CXCL10 expressions in the early time points from 2 to 8 h than PC7A NP”. Turning to SIINFEKLTEWTSSNVMEERKIKV [OVA257-280], the “tumor growth inhibition / survival benefit (in words)” value in the data set on B16-OVA tumor is recorded as “did not offer any significant tumor growth inhibition or survival benefit over the PBS control”.
